For 32 compounds, RP-LC retention time results are on record in the METLIN SMRT retention time set (Domingo-Almenara et al. 2019).

SMILES strings stand for the structures.

The series in a line: gradient 5% acetonitrile 3 min, to 50% in 2 min, to 85% in 15 min, held 3 min, 100 µL/min. The note with it: column: Zorbax Extend-C18 2.1 x 50 mm; eluents: water / acetonitrile, 0.1% formic acid. In a few lines:
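In both positive and negative ionization mode, a quadrupole time-of-flight mass spectrometer coupled to HPLC analyzed pure standards run in mixtures of ~100 molecules. The Zorbax Extend-C18 column (2.1 × 50 mm, 1.8 μm) was operated at 100 μL/min with water and acetonitrile, each containing 0.1% formic acid. The dead volume was 40 μL and the dwell volume 900 μL. Retention time came from adduct peaks that were computationally picked and individually inspected by hand.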
`CCC(C)NC(=O)N1CCc2c(c(-c3nc(Cc4ccccc4)no3)nn2C)C1` (configuration not stated) came in with an RP-LC retention time of 870 s. `Cc1csc(NC(=O)CN2C(=O)C3CCCCN3c3ccc(S(=O)(=O)N(C)C)cc32)n1` (configuration not stated) had an RP-LC retention time of 853 s.

In the case of `CCC(=O)N1CCc2cc(N3CC(C(=O)NCc4ccc(C)cc4)CC3=O)ccc21` (configuration not stated), the RP-LC retention time came out at 756 s. The value for `CCN1C(=O)c2ccccc2Oc2ccc(C(=O)NCc3ccco3)cc21` was 843 s; that for `O=C(Nc1ccc2c(c1)OCCO2)N1CCC2(CC1)CC(N1CCCC1)CCO2` (configuration not stated) was 586 s. Turning to `N#Cc1ccc(N2C=C(C(=O)N3CCOCC3)S(=O)(=O)c3ccc(Cl)cc32)cc1`, the RP-LC retention time is 764 s. For `O=C(Nc1ccc2c(c1)OCCO2)C(=O)c1cccn1Cc1ccccc1` the value was 1040 s; for `COc1ccccc1-c1noc(C2CCCN2C(=O)Nc2cccc(Cl)c2)n1` (configuration not stated), 941 s. The value for `N#Cc1ccc(C(=O)NC2CC(=O)N(Cc3ccccc3)C2)cc1` (configuration not stated) was 768 s. For `COc1ccc(-c2nc(-c3ccc4c(c3)ncn4CCN3CCOCC3)no2)c(C)c1` the value was 666 s; for `O=c1ccn(-c2ccc(Cl)cc2)nc1-c1nc(-c2ccccc2Br)no1`, 1000 s.

Consider `CS(=O)(=O)N[C@H]1C[C@@H]2C[C@H]1CN2C(=O)c1cccc(Cl)c1`, for which the RP-LC retention time was 672 s. The value for `CCOc1ccc(-c2ccnc3c(C(=O)Nc4cc(C)cc(C)c4)cnn23)cc1` was 1320 s; that for `COc1cccc(-n2nnc(-c3nsc(Nc4ccccc4)n3)c2C)c1` was 990 s; that for `Cc1cc(C)c(-c2csc(Nc3ccc(F)cn3)n2)cc1C` was 1210 s. For `CCN1CCN(c2c(C(=O)c3ccc(C)c(C)c3)cnc3cc(OC)c(OC)cc23)CC1` the value was 579 s; for `Cc1cccc(N2CCN(S(=O)(=O)c3cc4c(s3)CCN(C(=O)C3CC3)C4)CC2)c1`, 1040 s; for `CCC(=O)N1CCc2cc(N3CC(C(=O)NCc4cc(F)cc(F)c4)CC3=O)ccc21` (configuration not stated), 734 s.

`Cc1ccc(-n2ccc(=O)c(-c3nc(-c4ccccc4Cl)no3)n2)cc1`: the RP-LC retention time was 958 s.

Take `O=C(Nc1ccc(F)c(Cl)c1)Nc1nccn(-c2ccc3c(c2)CCC3)c1=O`: the RP-LC retention time was 1180 s. For `C=CCn1nnc(NCc2ccc(-c3ccc(Cl)cc3Cl)o2)n1` the value was 1160 s. `O=C(c1ccsc1)N1CCCCC1c1nncn1CC1CC1` (configuration not stated) gave an RP-LC retention time of 681 s.

Regarding `COC(=O)c1cccc(C(=O)Nc2ccc(Cl)cc2C)n1`, the RP-LC retention time came out at 971 s.

`O=C(Nc1ccc(Cl)cc1F)N1CCCN(C2CCN(CC3CC3)C2=O)CC1` (configuration not stated) gave an RP-LC retention time of 575 s.

`CCn1c(N2CCC(C(=O)NCCCN3CCOCC3)CC2)cc(=O)n(C)c1=O`: the RP-LC retention time was determined as 574 s.

Take `COC(=O)c1cnc(N2CCN(c3ccccn3)CC2)c2ccccc12`: the RP-LC retention time came to 640 s. The value for `CCc1nc(-c2csc(S(=O)(=O)N3CCCC(C(=O)Nc4cc(C)ccc4C)C3)c2)no1` (configuration not stated) was 1090 s. `Cc1noc2nc(CCC(=O)NCc3ccc(F)cc3Cl)nc(N3CCOCC3)c12` came in with an RP-LC retention time of 666 s. In the case of `CCOC(=O)C1CCC(CNC(=O)Nc2ccc(-c3nc(-c4ccccc4)co3)cc2)CC1` (configuration not stated), the RP-LC retention time came out at 1100 s. The value for `CCc1nc(-c2csc(S(=O)(=O)N3CCCC(C(=O)Nc4c(C)cccc4C)C3)c2)no1` (configuration not stated) was 1010 s; that for `Cc1ncc(-c2nc(-c3ccccc3)cs2)c(=O)n1CC(=O)N1CCCC1` was 827 s. The value for `Cc1ccc(S(=O)(=O)n2nc(-c3cccc(C)c3)nc2N)cc1` was 957 s.
